Measured values published in patent publication US10730863B2, “Bridged bicyclic compounds as farnesoid X receptor modulators” (BRISTOL-MYERS SQUIBB COMPANY, priority 2017, dated 2020).

Biological target: FXR (Homo sapiens (Human), UniProt Q96RI1)
Experiment: FXR EC50 (FXR agonist activity reported with each example)
Assay type: cell-based

FXR, sequence (Q96RI1 262-486): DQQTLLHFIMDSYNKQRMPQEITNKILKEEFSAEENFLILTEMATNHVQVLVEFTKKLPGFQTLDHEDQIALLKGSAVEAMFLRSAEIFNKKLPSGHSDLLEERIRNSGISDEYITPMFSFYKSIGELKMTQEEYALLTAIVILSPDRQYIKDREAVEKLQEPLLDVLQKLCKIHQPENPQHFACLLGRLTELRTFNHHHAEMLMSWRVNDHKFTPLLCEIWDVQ

| Compound | EC50 [nM] |
| --- | --- |
| CCCc1cc(C(=O)O)nc2c(F)cc(OCC34CCC(OCc5c(-c6c(Cl)cncc6Cl)noc5C5CC5)(CC3)CC4)cc12 [Example 309, 6-((4-((5-cyclopropyl-3-(3,5-dichloropyridin-4-yl)isoxazol-4-yl)methoxy)bicyclo[2.2.2]octan-1-yl)methoxy)-8-fluoro-4-propylquinoline-2-carboxylic acid] | 13 |
| O=C(O)c1cc(C2CC2)c2cc(OCC34CCC(OCc5c(-c6c(Cl)cncc6Cl)noc5C5CC5)(CC3)CC4)cc(F)c2n1 [Example 311, 4-cyclopropyl-6-((4-((5-cyclopropyl-3-(3,5-dichloropyridin-4-yl)isoxazol-4-yl)methoxy)bicyclo[2.2.2]octan-1-yl)methoxy)-8-fluoroquinoline-2-carboxylic acid] | 9 |
| O=C(O)c1cc(OC2COC2)c2cc(OCC34CCC(OCc5c(-c6c(Cl)cncc6Cl)noc5C5CC5)(CC3)CC4)cc(F)c2n1 [Example 312, 6-((4-((5-cyclopropyl-3-(3,5-dichloropyridin-4-yl)isoxazol-4-yl)methoxy)bicyclo[2.2.2]octan-1-yl)methoxy)-8-fluoro-4-(oxetan-3-yloxy)quinoline-2-carboxylic acid] | 47 |
| CCOc1cc(C(=O)O)nc2cc(F)c(OCC34CCC(OCc5c(-c6c(Cl)cncc6Cl)noc5C5CC5)(CC3)CC4)cc12 [Example 313, 6-((4-((5-cyclopropyl-3-(3,5-dichloropyridin-4-yl)isoxazol-4-yl)methoxy)bicyclo[2.2.2]octan-1-yl)methoxy)-4-ethoxy-7-fluoroquinoline-2-carboxylic acid] | 48 |
| O=C(O)c1cc(OCC2CC2)c2cc(OCC34CCC(OCc5c(-c6c(Cl)cncc6Cl)noc5C5CC5)(CC3)CC4)c(F)cc2n1 [Example 314, 6-((4-((5-cyclopropyl-3-(3,5-dichloropyridin-4-yl)isoxazol-4-yl)methoxy)bicyclo[2.2.2]octan-1-yl)methoxy)-4-(cyclopropylmethoxy)-7-fluoroquinoline-2-carboxylic acid] | 67 |
| Cn1nc(OCC23CCC(OCc4c(-c5c(Cl)cncc5Cl)noc4C4CC4)(CC2)CC3)cc1C(=O)O [Example 315] | 340 |
| CCn1nc(OCC23CCC(OCc4c(-c5c(Cl)cncc5Cl)noc4C4CC4)(CC2)CC3)cc1C(=O)O [Example 316] | 64 |
| O=C(O)c1sc(OCC23CCC(OCc4c(-c5c(Cl)cncc5Cl)noc4C4CC4)(CC2)CC3)nc1C(F)(F)F [Example 317] | 210 |
| Cc1nc(OCC23CCC(OCc4c(-c5c(Cl)cncc5Cl)noc4C4CC4)(CC2)CC3)sc1C(=O)O [Example 318] | 180 |
| O=C(O)c1ccc(OCC23CCC(OCc4c(-c5c(Cl)cncc5Cl)noc4C4CC4)(CC2)CC3)cn1 [Example 319] | 270 |
| O=C(O)c1ccc(OCC23CCC(OCc4c(-c5c(Cl)cncc5Cl)noc4C4CC4)(CC2)CC3)c(C(F)(F)F)c1 [Example 320] | 410 |
| COc1cc(OCC23CCC(OCc4c(-c5c(Cl)cncc5Cl)noc4C4CC4)(CC2)CC3)cc(C(=O)O)c1 [Example 321, 3-((4-((5-cyclopropyl-3-(3,5-dichloropyridin-4-yl)isoxazol-4-yl)methoxy)bicyclo[2.2.2]octan-1-yl)methoxy)-5-methoxybenzoic acid] | 7 |
| Cc1cc(OCC23CCC(OCc4c(-c5c(Cl)cncc5Cl)noc4C4CC4)(CC2)CC3)cc(C(=O)O)c1 [Example 322] | 7 |
| COc1cc(OCC23CCC(OCc4c(-c5c(Cl)cncc5Cl)noc4C4CC4)(CC2)CC3)nc(C(=O)O)c1 [Example 323] | 74 |
| O=C(O)c1cc(C2CC2)c2cc(OCC34CCC(OCc5c(-c6c(Cl)cncc6Cl)noc5C5CC5)(CC3)CC4)ccc2n1 [Example 324, 4-cyclopropyl-6-((4-((5-cyclopropyl-3-(3,5-dichloropyridin-4-yl)isoxazol-4-yl)methoxy)bicyclo[2.2.2]octan-1-yl)methoxy)quinoline-2-carboxylic acid] | 22 |
| Cc1cc(C(=O)O)nc2ccc(OCC34CCC(OCc5c(-c6c(Cl)cncc6Cl)noc5C5CC5)(CC3)CC4)cc12 [Example 325] | 52 |
